These results are taken from ChEMBL document CHEMBL4390677, “Topographical Mapping of Isoform-Selectivity Determinants for J-Channel-Binding Inhibitors of Sphingosine Kinases 1 and 2” (J Med Chem, 2019).

For one assay, the target named is Sphingosine kinase 1 (Homo sapiens, UniProt Q9NYA1). The assay can be described thus: Inhibition of GFP-tagged SK1 (unknown origin) expressed in HEK293 cells using Sph as substrate measured after 30 mins in presence of [gamma32P]ATP by Cerenkov counting analysis. The format is cell-based.
Sphingosine kinase 1, sequence (Q9NYA1 whole entry): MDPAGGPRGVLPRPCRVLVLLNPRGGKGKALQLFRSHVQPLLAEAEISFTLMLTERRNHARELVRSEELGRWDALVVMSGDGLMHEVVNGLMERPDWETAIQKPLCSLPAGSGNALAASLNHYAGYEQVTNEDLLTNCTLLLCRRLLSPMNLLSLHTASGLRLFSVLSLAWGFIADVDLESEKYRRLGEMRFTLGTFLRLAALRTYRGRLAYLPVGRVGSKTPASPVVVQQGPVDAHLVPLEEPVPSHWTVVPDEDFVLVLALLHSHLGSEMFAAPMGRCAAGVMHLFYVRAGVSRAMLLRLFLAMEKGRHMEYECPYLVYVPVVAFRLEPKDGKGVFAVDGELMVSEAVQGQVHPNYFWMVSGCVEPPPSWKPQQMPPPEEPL
Assay [1] deals with T1, Sphingosine kinase 2 (Homo sapiens, UniProt Q9NRA0).
T1 sequence (Q9NRA0 whole entry): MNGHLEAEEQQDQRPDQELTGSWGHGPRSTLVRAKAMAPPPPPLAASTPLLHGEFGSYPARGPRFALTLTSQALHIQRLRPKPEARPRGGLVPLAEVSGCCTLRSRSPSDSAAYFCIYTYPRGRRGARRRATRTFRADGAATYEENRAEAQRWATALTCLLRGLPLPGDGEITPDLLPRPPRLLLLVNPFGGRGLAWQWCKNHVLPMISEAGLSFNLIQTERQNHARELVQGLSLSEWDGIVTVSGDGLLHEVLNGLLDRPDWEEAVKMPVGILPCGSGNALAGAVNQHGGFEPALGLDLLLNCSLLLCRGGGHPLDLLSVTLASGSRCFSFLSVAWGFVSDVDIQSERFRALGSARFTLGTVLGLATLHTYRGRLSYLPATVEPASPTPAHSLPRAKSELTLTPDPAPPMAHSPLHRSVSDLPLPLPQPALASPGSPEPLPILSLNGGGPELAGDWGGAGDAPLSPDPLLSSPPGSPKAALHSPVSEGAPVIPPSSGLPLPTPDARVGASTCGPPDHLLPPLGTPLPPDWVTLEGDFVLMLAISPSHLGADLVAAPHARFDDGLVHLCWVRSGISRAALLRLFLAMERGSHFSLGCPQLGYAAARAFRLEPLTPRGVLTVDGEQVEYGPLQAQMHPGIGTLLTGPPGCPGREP
The assay can be described thus: Inhibition of recombinant human full-length N-terminal His-tagged SK2 expressed in baculovirus infected Sf9 insect cells using Sph as substrate measured after 30 mins in presence of [gamma32P]ATP by Cerenkov counting analysis.

For another assay, the species on record is Homo sapiens. The assay is described as follows: Selectivity index, ratio of IC50 for GFP-tagged SK1 (unknown origin) expressed in HEK293 cells to IC50 for purified SK2 (unknown origin).
The target of assay [2] is T1, Sphingosine kinase 2. The assay can be described thus: Inhibition of SK2 (unknown origin).
The target in assay [3] is T2, Sphingosine kinase 2 (Homo sapiens) (UniProt Q9NRA0).
T2 sequence (whole entry): T1 sequence (Q9NRA0 whole entry)
The assay can be described thus: Inhibition of recombinant human full-length N-terminal His-tagged SK2 expressed in baculovirus infected Sf9 insect cells at 3 uM using Sph as substrate measured after 30 mins in presence of [gamma32P]ATP by Cerenkov counting analysis relative to control.

The structures appear in SMILES notation.

Take `OC[C@H]1CCCN1Cc1ccc(COc2cccc(OCc3ccccc3)c2)cc1`: the IC50 on Sphingosine kinase 1 came out at 14 nM; at Sphingosine kinase 2 [1], 16 nM. Also, the Ratio IC50 in the assay filed under Homo sapiens stood at 0.88.
The like results for `O=S(=O)(Oc1cccc(OCc2ccc(CN3CCC[C@@H]3CO)cc2)c1)c1ccccc1` were, in that order, 11 nM, 902 nM and 0.012.
Regarding `OC[C@H]1CCCN1Cc1ccc(COc2cccc(SCc3ccccc3)c2)cc1`, the IC50 on Sphingosine kinase 1 turned out to be 137 nM; on Sphingosine kinase 2 [1], 26 nM. Further, the Ratio IC50 in the assay filed under Homo sapiens stood at 5.3.
As for `OC[C@H]1CCCN1Cc1ccc(COc2cccc(OCc3ccc(F)cc3)c2)cc1`, the IC50 on Sphingosine kinase 1 came out at 170 nM; on Sphingosine kinase 2 [1], 49 nM. Besides, in the assay filed under Homo sapiens, the Ratio IC50 amounted to 3.5.
As to `COc1ccc(COc2cccc(OCc3ccc(CN4CCC[C@@H]4CO)cc3)c2)cc1`, the IC50 at Sphingosine kinase 1 is above 3000 nM; on Sphingosine kinase 2 [1], 119 nM. Further, the Ratio IC50 in the assay filed under Homo sapiens was above 25.
`OC[C@H]1CCCN1Cc1ccc(COc2cccc(SCc3ccc(F)cc3)c2)cc1`: the IC50 came to 765 nM at Sphingosine kinase 1 and 17 nM on Sphingosine kinase 2 [1]. In addition, in the assay listed under Homo sapiens, the Ratio IC50 was found to be 45.
For `Oc1ccc(Nc2nc(-c3ccc(Cl)cc3)cs2)cc1`, the Ki on Sphingosine kinase 2 [2] was 6700 nM.
In the case of `OC[C@H]1CCCN1Cc1ccc(COc2cccc(OCc3cccc(Cl)c3)c2)cc1`, the results for the IC50 at Sphingosine kinase 1 and on Sphingosine kinase 2 [1] were 44 nM and 412 nM, respectively. Besides, the Ratio IC50 in the assay listed under Homo sapiens is 0.11.
As for `O=S(=O)(Cc1cccc(OCc2ccc(CN3CCC[C@@H]3CO)cc2)c1)c1ccccc1`, the IC50 on Sphingosine kinase 1 came to 144 nM. Moreover, the inhibition in assay [3] was determined as 16%. Further, the Ratio IC50 in the assay filed under Homo sapiens is below 0.048.
In the case of `N#Cc1ccc(COc2cccc(OCc3ccc(CN4CCC[C@@H]4CO)cc3)c2)cc1`, the results for the IC50 at Sphingosine kinase 1 and on Sphingosine kinase 2 [1] were above 3000 nM and 1120 nM, respectively. Besides, in the assay filed under Homo sapiens, the Ratio IC50 is above 2.7.
The like results for `OC[C@H]1CCCN1Cc1ccc(COc2cccc(OCc3ccc(Cl)cc3)c2)cc1` were, in that order, 4130 nM, 41 nM and 101.
The like results for `OC[C@H]1CCCN1Cc1ccc(COc2cccc(OCc3ccccc3F)c2)cc1` were, in that order, 41 nM, 55 nM and 0.75.
For `OC[C@H]1CCCN1Cc1ccc(COc2cccc(OCc3ccccc3Cl)c2)cc1`, in that order: 39 nM, 151 nM and 0.26.
Regarding `OC[C@H]1CCCN1Cc1ccc(COc2cccc(SCc3ccc(Cl)cc3)c2)cc1`, the IC50 at Sphingosine kinase 1 came to 2360 nM; at Sphingosine kinase 2 [1], 31 nM. Further, the Ratio IC50 in the assay filed under Homo sapiens was found to be 76.
`OC[C@H]1CCCN1Cc1ccc(COc2cccc(CCc3ccccc3)c2)cc1`: the IC50 is 26 nM at Sphingosine kinase 1 and 35 nM at Sphingosine kinase 2 [1]. For the same molecule, the Ratio IC50 in the assay filed under Homo sapiens worked out at 0.74.
`OC[C@H]1CCCN1Cc1ccc(COc2cccc(OCc3cccc(F)c3)c2)cc1`: the IC50 on Sphingosine kinase 1 was 9 nM; at Sphingosine kinase 2 [1], 143 nM. In addition, in the assay filed under Homo sapiens, the Ratio IC50 came out at 0.063.
